Assay results published in patent US12581252B2, “Substituted pyrrolo[3,4-b]pyridines as PI3K-α inhibitors” (Relay Therapeutics, Inc., priority 2020, dated 2026).

Molecular target: H1047R PIK3CA enzyme (Homo sapiens, UniProt P42336, H1047R)
Test: ADP-Glo Biochemical PIK3CA Kinase Assay

Sequence of H1047R PIK3CA enzyme (P42336 whole entry H1047R): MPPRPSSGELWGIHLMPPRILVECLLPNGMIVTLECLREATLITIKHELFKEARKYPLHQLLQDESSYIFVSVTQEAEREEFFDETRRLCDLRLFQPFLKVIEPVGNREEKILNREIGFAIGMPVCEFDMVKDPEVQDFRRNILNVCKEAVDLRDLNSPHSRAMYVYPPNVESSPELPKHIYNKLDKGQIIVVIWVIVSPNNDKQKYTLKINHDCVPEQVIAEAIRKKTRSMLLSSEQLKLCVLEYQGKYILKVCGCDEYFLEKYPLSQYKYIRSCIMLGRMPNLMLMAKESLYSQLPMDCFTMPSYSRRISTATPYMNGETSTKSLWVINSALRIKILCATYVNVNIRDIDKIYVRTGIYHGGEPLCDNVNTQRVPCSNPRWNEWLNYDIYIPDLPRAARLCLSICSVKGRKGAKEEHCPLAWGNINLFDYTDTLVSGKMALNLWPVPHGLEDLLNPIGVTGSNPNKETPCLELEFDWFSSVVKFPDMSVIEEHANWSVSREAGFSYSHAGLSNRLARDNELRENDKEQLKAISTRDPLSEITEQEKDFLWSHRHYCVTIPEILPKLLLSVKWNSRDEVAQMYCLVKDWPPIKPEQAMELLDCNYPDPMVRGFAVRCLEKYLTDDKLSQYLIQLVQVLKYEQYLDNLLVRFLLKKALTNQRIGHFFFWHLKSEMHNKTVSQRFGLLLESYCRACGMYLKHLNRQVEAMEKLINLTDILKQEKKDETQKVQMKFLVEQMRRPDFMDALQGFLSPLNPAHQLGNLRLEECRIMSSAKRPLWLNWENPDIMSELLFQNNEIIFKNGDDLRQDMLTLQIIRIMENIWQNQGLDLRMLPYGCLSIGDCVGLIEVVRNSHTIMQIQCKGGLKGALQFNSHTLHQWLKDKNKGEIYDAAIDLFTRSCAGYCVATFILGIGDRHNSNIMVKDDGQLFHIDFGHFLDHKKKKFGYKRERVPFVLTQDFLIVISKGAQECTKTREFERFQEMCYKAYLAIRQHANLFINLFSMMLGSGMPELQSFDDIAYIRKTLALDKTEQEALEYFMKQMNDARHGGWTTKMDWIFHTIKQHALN
Sequence of H1047R PIK3CA enzyme (P27986 whole entry partner): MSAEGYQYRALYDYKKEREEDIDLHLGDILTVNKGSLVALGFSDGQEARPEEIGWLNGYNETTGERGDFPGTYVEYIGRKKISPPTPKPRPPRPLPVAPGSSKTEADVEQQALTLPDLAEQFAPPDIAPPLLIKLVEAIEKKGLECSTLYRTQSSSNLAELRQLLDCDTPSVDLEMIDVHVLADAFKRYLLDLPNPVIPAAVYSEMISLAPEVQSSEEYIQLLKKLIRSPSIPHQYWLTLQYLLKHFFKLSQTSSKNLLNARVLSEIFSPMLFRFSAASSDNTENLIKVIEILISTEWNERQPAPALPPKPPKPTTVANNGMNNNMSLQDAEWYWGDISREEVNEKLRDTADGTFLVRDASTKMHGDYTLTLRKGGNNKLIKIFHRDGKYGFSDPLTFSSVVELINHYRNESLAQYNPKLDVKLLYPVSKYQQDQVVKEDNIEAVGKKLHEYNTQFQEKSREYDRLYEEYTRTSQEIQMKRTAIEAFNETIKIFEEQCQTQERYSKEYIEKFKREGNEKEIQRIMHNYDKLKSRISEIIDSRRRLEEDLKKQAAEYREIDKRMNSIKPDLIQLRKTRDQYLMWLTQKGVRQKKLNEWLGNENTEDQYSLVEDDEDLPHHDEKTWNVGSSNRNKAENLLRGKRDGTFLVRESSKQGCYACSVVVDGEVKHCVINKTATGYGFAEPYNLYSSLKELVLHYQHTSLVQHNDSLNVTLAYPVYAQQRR

Compound	IC50
C[C@@H](O)c1cc(-c2ccc3ncnn3c2)cc2c1[C@@H](c1cc(F)ccc1Cl)NC2=O (single isomer, unassigned) [Compound I-2230]	10000 to 100000 nM
NC(=O)CCN(C(=O)c1cc(F)cc(C(F)(F)F)c1)c1cc(O)cc2c1C(c1cc(F)ccc1Cl)NC2=O (stereo not drawn) [Compound I-2309]	10000 to 100000 nM
CS(=O)(=O)Cc1cc(NC(=O)c2cc(F)cc(C(F)(F)F)c2)c2c(c1)C(=O)N[C@@H]2c1cc(F)ccc1Cl [Compound I-619]	1000 to 10000 nM
O=C(Nc1cc(Br)cc2c1C(c1cc(F)ccc1Cl)NC2=O)c1ccc(C(F)(F)F)o1 (stereo not drawn) [Compound I-1423]	1000 to 10000 nM
O=C1N[C@@H](c2cc(F)ccc2Cl)c2c(NC(=O)N3C[C@@H](O)c4c(F)cccc43)cccc21 (single isomer, unassigned) [Compound I-2144]	1000 to 10000 nM
O=C1NC(c2cc(F)ccc2Cl)c2c(Nc3nccc4ccsc34)cc(Br)cc21 (stereo not drawn) [Compound I-1461]	10000 to 100000 nM
O=C1N[C@H](c2cc(F)ccc2Cl)c2c(NC(=O)N3C[C@@H](O)c4cc(F)ccc43)cc(-n3ccccc3=O)cc21 (single isomer, unassigned) [Compound I-2352]	1000 to 10000 nM
O=C1N[C@H](c2cc(F)ccc2Cl)c2c(NC(=O)[C@@H]3C[C@@H](O)C[C@H](C(F)(F)F)C3)cccc21 (single isomer, unassigned) [Compound I-2176]	10000 to 100000 nM
Cc1ccccc1C1NC(=O)c2cccc(-c3cc4c(F)cc(F)cc4[nH]3)c21 (stereo not drawn) [Compound I-479]	1000 to 10000 nM
O=C1NC(c2cc(F)ccc2Cl)c2c(NC(=O)C(O)c3ccccc3)cc(-c3ccc4ncnn4c3)cc21 (stereo not drawn) [Compound I-1724]	10000 to 100000 nM
O=C1N[C@H](c2cc(F)ccc2Cl)c2c(NC(=O)N3CCC[C@](O)(C(F)(F)F)C3)cccc21 (single isomer, unassigned) [Compound I-2114]	10000 to 100000 nM
O=C1NC(c2cc(F)ccc2Cl)c2c(NC(=O)N3CCSc4ccccc43)cccc21 (stereo not drawn) [Compound I-2284]	10000 to 100000 nM
O=C1NC(c2cc(F)ccc2Cl)c2c(Nc3nccc4ccccc34)cc(Br)cc21 (stereo not drawn) [Compound I-762]	1000 to 10000 nM
Cn1ncc(C2NC(=O)c3cccc(NC(=O)c4nsc5ccccc45)c32)c1C(F)F (stereo not drawn) [Compound I-241]	10000 to 100000 nM
O=C1NC(c2cc(F)ccc2Cl)c2c(OCc3cc(F)cc(C(F)(F)F)c3)cccc21 (stereo not drawn) [Compound I-2295]	10000 to 100000 nM
O=C1NC(c2cc(F)ccc2Cl)c2c(NC3CCc4ccccc43)cc(Br)cc21 (stereo not drawn) [Compound I-1852]	10000 to 100000 nM
Cn1cc(-c2cc(NC(=O)c3cc(F)cc(Cl)c3)c3c(n2)C(=O)N[C@@H]3c2cc(F)ccc2Cl)cn1 [Compound I-384]	1000 to 10000 nM

Compound	IC50
O=C1NC(c2cc(F)ccc2Cl)c2c(NC(=O)C3CCCCC3)cc(-c3ccc4ncnn4c3)cc21 (stereo not drawn) [Compound I-1549]	1000 to 10000 nM
Nc1cc(NC(=O)c2cc(F)cc(C(F)(F)F)c2)c2c(c1)C(=O)N[C@@H]2c1cc(F)ccc1Cl [Compound I-217]	1000 to 10000 nM
Cc1ccccc1C1NC(=O)c2cccc(NC(=O)c3noc4ccc(Cl)cc34)c21 (stereo not drawn) [Compound I-200]	1000 to 10000 nM
O=C(Nc1cc(-c2ccc3nccn3n2)cc2c1[C@@H](c1cc(F)ccc1Cl)NC2=O)c1cc(F)cc(C(F)(F)F)c1 [Compound I-1331]	1000 to 10000 nM
CNc1cc(NC(=O)N2C[C@@](O)(C(F)F)c3cc(F)ccc32)c2c(c1)C(=O)N[C@@H]2c1cc(F)ccc1Cl (single isomer, unassigned) [Compound I-2679]	10000 to 100000 nM
C[C@H](c1nn[nH]c1C(=O)Nc1cccc2c1[C@@H](c1cc(F)ccc1Cl)NC2=O)C(F)(F)F (single isomer, unassigned) [Compound I-2268]	10000 to 100000 nM
O=C(Nc1cccc2c1C(C1CCC(O)CC1)NC2=O)c1cc(F)cc(C(F)(F)F)c1 (stereo not drawn) [Compound I-1835]	10000 to 100000 nM
O=C(Nc1cccc2c(=O)[nH]n(-c3cc(F)ccc3Cl)c12)c1cc(F)cc(C(F)(F)F)c1 [Compound I-323]	1000 to 10000 nM
O=C1N[C@H](c2cc(F)ccc2Cl)c2c(NC(=O)N3C[C@](O)(C(F)(F)F)c4cc(F)ccc43)cc(Cl)nc21 (single isomer, unassigned) [Compound I-2702]	1000 to 10000 nM
O=C1NC(c2cc(F)ccc2Cl)c2c(NC(=O)N3CCC(O)C3)cc(-c3ccc4ncnn4c3)cc21 (stereo not drawn) [Compound I-1718]	10000 to 100000 nM
CC(=O)N1CCC(C(=O)Nc2cc(-c3ccc4ncnn4c3)cc3c2C(c2cc(F)ccc2Cl)NC3=O)CC1 (stereo not drawn) [Compound I-1744]	10000 to 100000 nM
CN1CCCC(C2NC(=O)c3cccc(NC(=O)c4cc(F)cc(C(F)(F)F)c4)c32)C1 (racemic) [Compound I-1769]	10000 to 100000 nM
O=C1N[C@@H](c2cc(F)ccc2Cl)c2c(NC(=O)N3C[C@H](O)c4cc(F)c(F)cc43)cccc21 (single isomer, unassigned) [Compound I-2291]	1000 to 10000 nM
O=C(Nc1cccc2c1C(CC1CCCCC1)NC2=O)c1cc(F)cc(C(F)(F)F)c1 (stereo not drawn) [Compound I-1732]	1000 to 10000 nM
Nc1cccc2c(=O)[nH]n(Cc3ccccc3)c12 [Compound I-103]	10000 to 100000 nM
O=C(Nc1cc(-c2ccc3ncnn3c2)cc2c1[C@@H](c1cc(F)ccc1Cl)NC2=O)c1cc(F)cc(OC(F)(F)F)c1 (stereo in doubt) [Compound I-1117]	1000 to 10000 nM

Continued, values first:

IC50	Compound
100 to 500 nM	O=C(Nc1cc(OC[C@@H]2CCCN2)cc2c1C(c1cc(F)ccc1Cl)NC2=O)c1cc(F)cc(C(F)(F)F)c1 (single isomer, unassigned) [Compound I-1468]
1000 to 10000 nM	Nc1ccc(Cl)c(C2NC(=O)c3cccc(NC(=O)c4cc(F)cc(C(F)(F)F)c4)c32)c1 (stereo not drawn) [Compound I-429]
≤ 100 nM	N#Cc1ncccc1-c1cc(NC(=O)c2cc(F)cc(C(F)(F)F)c2)c2c(c1)C(=O)NC2c1cc(F)ccc1Cl (stereo not drawn) [Compound I-1214]
≤ 100 nM	NS(=O)(=O)CCNC(=O)c1cc(NC(=O)c2cc(F)cc(C(F)(F)F)c2)c2c(c1)C(=O)NC2c1cc(F)ccc1Cl (stereo not drawn) [Compound I-1469]
≤ 100 nM	O=C(Nc1cc(NC2CCC2(F)F)nc2c1C(c1cc(F)ccc1Cl)NC2=O)c1cc(F)cc(C(F)(F)F)c1 (stereo not drawn) [Compound I-532]
100 to 500 nM	O=C(Nc1cc(N2CC3(CNC3)C2)cc2c1C(c1cc(F)ccc1Cl)NC2=O)c1cc(F)cc(C(F)(F)F)c1 (stereo not drawn) [Compound I-1299]
≤ 100 nM	CC(C)(O)c1cc(NC(=O)c2cc(F)cc3cc[nH]c23)c2c(c1)C(=O)NC2c1cc(F)ccc1Cl (stereo not drawn) [Compound I-495]
100 to 500 nM	O=C1NC(c2cc(F)ccc2Cl)c2c(NC(=O)N3CC4(CCC4)c4ccccc43)cc(Br)cc21 (stereo not drawn) [Compound I-1383]
100 to 500 nM	O=C(Nc1cc(NC(=O)C2CNC2)cc2c1C(c1cc(F)ccc1Cl)NC2=O)c1cc(F)cc(C(F)(F)F)c1 (stereo not drawn) [Compound I-389]
≤ 100 nM	CN(C)S(=O)(=O)Cc1cc(NC(=O)c2cc(F)cc(C(F)(F)F)c2)c2c(c1)C(=O)N[C@H]2c1cc(F)ccc1Cl [Compound I-1489]
≤ 100 nM	O=C(Nc1cc(NC2CCC(O)C2)cc2c1C(c1cc(F)ccc1Cl)NC2=O)c1cc(F)cc(C(F)(F)F)c1 (stereo not drawn) [Compound I-359]
≤ 100 nM	O=C(Nc1cccc2c1C(c1cc(F)ccc1C(F)F)NC2=O)c1cc(F)cc(C(F)(F)F)c1 (stereo not drawn) [Compound I-138]
100 to 500 nM	CC(C)(C(=O)O)c1cc(NC(=O)c2cc(F)cc(C(F)(F)F)c2)c2c(c1)C(=O)NC2c1cc(F)ccc1Cl (stereo not drawn) [Compound I-427]
≤ 100 nM	O=C1NC(c2ccccc2Cl)c2c(NC(=O)c3nsc4ccccc34)cc(Cl)nc21 (stereo not drawn) [Compound I-93, N-[2-Chloro-5-(2-chlorophenyl)-7-oxo-5H,6H,7H-pyrrolo[3,4-b]pyridin-4-yl]-1,2-benzothiazole-3-carboxamide]
≤ 100 nM	Cn1cc(NS(=O)(=O)Cc2cc(NC(=O)c3cc(F)cc(C(F)(F)F)c3)c3c(c2)C(=O)NC3c2cc(F)ccc2Cl)cn1 (stereo not drawn) [Compound I-1535]
≤ 100 nM	Cc1ccccc1C1NC(=O)c2cc(C#N)cc(NC(=O)c3nsc4ccccc34)c21 (stereo not drawn) [Compound I-116]
≤ 100 nM	O=C(Nc1cc(CNC2COC2)cc2c1C(c1cc(F)ccc1Cl)NC2=O)c1cc(F)cc(C(F)(F)F)c1 (stereo not drawn) [Compound I-352]
≤ 100 nM	N#Cc1ccc2c(c1)CCN2c1cc(NC(=O)c2cc(F)cc(C(F)(F)F)c2)c2c(c1)C(=O)NC2c1cc(F)ccc1Cl (stereo not drawn) [Compound I-1263]
≤ 100 nM	C[C@@](O)(CC#N)c1cc(NC(=O)c2cc(F)cc(C(F)(F)F)c2)c2c(c1)C(=O)N[C@H]2c1cc(F)ccc1Cl (single isomer, unassigned) [Compound I-1395]
≤ 100 nM	Cc1ccccc1C1NC(=O)c2cc(CO)cc(NC(=O)c3nsc4ccccc34)c21 (stereo not drawn) [Compound I-131, N-[6-(Hydroxymethyl)-3-(2-methylphenyl)-1-oxo-2,3-dihydro-1H-isoindol-4-yl]-1,2-benzothiazole-3-carboxamide]
100 to 500 nM	Cc1ccccc1C1NC(=O)c2c(Br)ccc(NC(=O)c3cc(F)cc(C(F)(F)F)c3)c21 (stereo not drawn) [Compound I-279]
≤ 100 nM	N#CCn1nccc1-c1cc(NC(=O)c2cc(F)cc(C(F)(F)F)c2)c2c(c1)C(=O)NC2c1cc(F)ccc1Cl (stereo not drawn) [Compound I-1303]
≤ 100 nM	CS(=O)(=O)n1cc(-c2cc(NC(=O)c3cc(F)cc(C(F)(F)F)c3)c3c(c2)C(=O)N[C@H]3c2cc(F)ccc2Cl)cn1 [Compound I-1996]
≤ 100 nM	O=C1NC(c2cc(F)c(F)cc2Cl)c2c(NC(=O)c3nsc4ccccc34)cccc21 (stereo not drawn) [Compound I-159]
≤ 100 nM	O=C(Nc1cc(Br)c(Cl)c2c1C(c1cc(F)ccc1Cl)NC2=O)c1cc(F)cc(C(F)(F)F)c1 (stereo not drawn) [Compound I-847]
≤ 100 nM	N#CC1(COc2cc(NC(=O)c3cc(F)cc(C(F)(F)F)c3)c3c(c2)C(=O)NC3c2cc(F)ccc2Cl)CC1 (stereo not drawn) [Compound I-1113]
≤ 100 nM	O=C1NC(c2cc(F)ccc2C(F)F)c2c(NC(=O)c3nsc4ccccc34)cccc21 (stereo not drawn) [Compound I-137]
≤ 100 nM	NCc1cc(NC(=O)c2cc(F)cc(C(F)(F)F)c2)c2c(c1)C(=O)NC2c1cc(F)ccc1Cl (stereo not drawn) [Compound I-126]
500 to 1000 nM	O=C1NC(c2ccccc2Cl)c2c(NC(=O)c3cc(F)cc(C(F)(F)F)c3)cccc2O1 (stereo not drawn) [Compound I-1274]
100 to 500 nM	Cn1cc(-c2cc(NC(=O)c3nsc4ccccc34)c3c(n2)C(=O)NC3c2ccccc2Cl)cn1 (stereo not drawn) [Compound I-108]
